The values that follow come from US20250049798A1, “WEE1 PROTEIN KINASE DEGRADATION AGENT AND USE THEREOF” (HANGZHOU GLUBIO PHARMACEUTICAL CO. LTD., priority 2021, published 2025).

Read-outs that look alike come from different tables or passages of the source.

Broadly, the DC50 is the concentration at which degradation of the target reaches its halfway point. Read a low DC50 as degradation at low concentration. As usually defined, the Dmax is the largest share of the target that was removed. The term IC50 denotes the concentration that inhibits the measured activity by half.

One experiment addresses HiBiT tagged Wee1 (Homo sapiens, UniProt P30291). In words: Wee1 protein degradation assay (HiBiT assay). Format: cell-based. To be noted: engineered HT-1080 cells, 20 hours; for Dmax: maximum percentage of Wee1 degradation, read-out: HiBiT Wee1: Dmax. In general terms: The HiBiT peptide binds its large partner to form an active luciferase.
The test system of another experiment is NCI-H1048 cells. Kind of experiment: NCI-H1048 cell proliferation assay (CTG assay). Format: cell-based. The conditions noted are these: 120 hours, read-out: CTG cellular assay_H1048: IC50. How it is done:
NCI-H1048 Cell Proliferation Assay (CTG Assay) The following is an example of an assay that can be used to determine the anti-proliferative activity of Wee1 PROTACs in a small cell lung cancer cell line, NCI-H1048 (ATCC Cat #CRL-5853). This cell line was cultured in RPMI-1640 medium supplemented with 10% FBS. About 1,200 NCI-H1048 cells in 50 μL of culture medium were seeded into a 384-well plate (Cat #3764, Corning), pre-spotted with compounds using the Echo 650 liquid handler (Beckman). The dose-response-curve (DRC) typically has 10-points with a highest concentration at 10 μM, and half-log diluted to as low as 0.316 nM, plus a DMSO control. Assay plates were incubated at 37° C. with 5% CO2 for 120 hours. After that, 20 μL of the CellTiter-Glo (CTG) Luminescent Cell Viability Assay Reagent (Cat #G7573, Promega) was added to each well and incubated at room temperature for 30 minutes. Luminescence was then measured with Pherastar microplate reader (BMG Labtech). All percentage of cell growth inhibition curves were processed using Collaborative Drug Discovery Vault.
Cell viability reads in compound-treated wells were normalized to that of DMSO control and expressed as Percent of Control (PoC, y). A four Parameter Logistic Model was used to determine the compound's EC50 and DC50, using the following equation: […]

HiBiT tagged Wee1, sequence (P30291 whole entry): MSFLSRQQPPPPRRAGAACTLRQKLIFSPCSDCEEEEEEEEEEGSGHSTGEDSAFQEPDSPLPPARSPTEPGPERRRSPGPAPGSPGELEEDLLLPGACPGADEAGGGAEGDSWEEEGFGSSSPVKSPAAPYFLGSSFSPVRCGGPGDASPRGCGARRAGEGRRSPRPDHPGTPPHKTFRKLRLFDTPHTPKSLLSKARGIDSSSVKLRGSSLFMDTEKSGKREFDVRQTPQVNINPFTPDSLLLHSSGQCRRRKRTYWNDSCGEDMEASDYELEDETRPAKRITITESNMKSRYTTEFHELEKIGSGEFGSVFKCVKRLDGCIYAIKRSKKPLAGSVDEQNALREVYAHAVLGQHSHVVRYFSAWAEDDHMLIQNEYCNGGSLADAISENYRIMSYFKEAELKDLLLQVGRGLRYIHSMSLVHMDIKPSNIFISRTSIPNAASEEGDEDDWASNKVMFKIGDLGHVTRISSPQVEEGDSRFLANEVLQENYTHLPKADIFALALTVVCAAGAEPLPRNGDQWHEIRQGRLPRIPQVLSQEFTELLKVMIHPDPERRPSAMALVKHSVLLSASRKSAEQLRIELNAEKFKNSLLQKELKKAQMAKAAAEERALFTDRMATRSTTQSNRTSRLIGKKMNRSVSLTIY

Regarding `C=CCn1c(=O)c2cnc(Nc3ccc(N4CCC(CN5CCN(c6ccc(NC7CCC(=O)NC7=O)cc6F)CC5)CC4)cc3)nc2n1-c1ccc2c(n1)[C@@](O)(CC)CC2` (some centres unmarked) [Compound 119], at HiBiT tagged Wee1, the half-maximal degradation concentration (DC50) is below 100 nM and the greatest degradation seen (Dmax) was above 75%. In addition, the 50% inhibitory concentration (IC50) in the experiment on NCI-H1048 cells (Homo sapiens) was at most 25 nM.
For `C=CCn1c(=O)c2cnc(Nc3ccc4c(c3)CN(CC3CN(c5ccc6c(c5)C(=O)N(C5CCC(=O)NC5=O)C6=O)C3)CC4)nc2n1-c1cccc(C(C)(C)O)n1` (centres unmarked) [Compound 6] the same measures were above 1000 nM, below 50% and above 100 nM.
Take `C=CCn1c(=O)c2cnc(Nc3ccc(C4CCN(CC5CCN(c6ccc7c(c6)C(=O)N(C6CCC(=O)NC6=O)C7=O)CC5)CC4)cc3)nc2n1-c1cccc(C(C)(C)O)n1` (centres unmarked) [Compound 21]: at HiBiT tagged Wee1, the DC50 is below 100 nM and the maximal degradation (Dmax) was 50 to 75%. Besides, the half-maximal inhibitory concentration (IC50) with NCI-H1048 cells (Homo sapiens) lay in the range of 25 to 100 nM.
As to `C=CCn1c(=O)c2cnc(Nc3ccc(N4CCN(CC5CCN(c6ccc(NC7CCC(=O)NC7=O)cc6F)CC5)CC4)cc3)nc2n1-c1ccc2c(n1)[C@](C)(O)CC2` (single isomer, unassigned) [Compound 152-A], at HiBiT tagged Wee1, the half-maximal degradation concentration (DC50) is below 100 nM. The half-maximal inhibitory concentration (IC50) with NCI-H1048 cells (Homo sapiens) was at most 25 nM.
In the case of `C[C@]1(O)CC/C=C\Cn2c(=O)c3cnc(Nc4ccc(N5CCN(CC6CCN(c7ccc(NC8CCC(=O)NC8=O)cc7F)CC6)CC5)cc4)nc3n2-c2cccc1n2` (single isomer, unassigned) [Compound 141], at HiBiT tagged Wee1, the DC50 is below 100 nM and the greatest degradation seen (Dmax) was above 75%. The IC50 in the experiment on NCI-H1048 cells (Homo sapiens) is at most 25 nM.
As for `C=CCn1c(=O)c2cnc(Nc3ccc(C4CCN(CC5CCN(Cc6ccc7c(c6)n(C)c(=O)n7C6CCC(=O)NC6=O)CC5)CC4)cc3)nc2n1-c1cccc(C(C)(C)O)n1` (centres unmarked) [Compound 79], on HiBiT tagged Wee1, the DC50 is below 100 nM and the Dmax lay in the range of 50 to 75%. Also, in the experiment on NCI-H1048 cells (Homo sapiens), the half-inhibitory concentration (IC50) was at most 25 nM.
For `C=CCn1c(=O)c2cnc(Nc3ccc(N4CCC(CN5CCC(c6ccc(NC7CCC(=O)NC7=O)cc6C(F)(F)F)CC5)CC4)cc3)nc2n1-c1cccc(C(C)(C)O)n1` (centres unmarked) [Compound 80] the same measures were below 100 nM, above 75% and at most 25 nM.
The matching figures for `C=CCn1c(=O)c2cnc(Nc3ccc(N4CCN(C5CC6(C5)CN(c5ccc(NC7CCC(=O)NC7=O)cc5F)C6)CC4)cc3)nc2n1-c1ccc2c(n1)[C@@](O)(CC)CC2` (some centres unmarked) [Compound 168]: below 100 nM, above 75% and at most 25 nM.
`C=CCn1c(=O)c2cnc(Nc3ccc(N4CC5(CCN(C6CN(c7ccc(NC8CCC(=O)NC8=O)cc7F)C6)CC5)C4)cc3)nc2n1-c1ccc2c(n1)[C@@](O)(CC)CC2` (some centres unmarked) [Compound 179]: on HiBiT tagged Wee1, the DC50 was below 100 nM and the maximal degradation (Dmax) is above 75%. Moreover, in the experiment with NCI-H1048 cells (Homo sapiens), the IC50 was at most 25 nM.
For `C=CCn1c(=O)c2cnc(Nc3ccc(N4CCN(C5CCN(c6ccc(NC7CCC(=O)NC7=O)cc6F)CC5)CC4)cc3)nc2n1-c1cccc(C(C)(C)O)n1` (centres unmarked) [Compound 93] the same measures were below 100 nM, above 75% and at most 25 nM.
On HiBiT tagged Wee1, `C=CCn1c(=O)c2cnc(Nc3ccc(N4CCC(CN5CCN(c6ccc(NC7CCC(=O)NC7=O)cc6F)CC5)CC4)cc3)nc2n1-c1cccc(C(C)(C)O)n1` (single isomer, unassigned) [Compound 100-B] gave a DC50 below 100 nM. Also, in the experiment with NCI-H1048 cells, the half-inhibitory concentration (IC50) was at most 25 nM.
`C=CCn1c(=O)c2cnc(Nc3ccc(N4CCC(N5CC6(CN(c7ccc(NC8CCC(=O)NC8=O)cc7F)C6)C5)CC4)cc3)nc2n1-c1ccc2c(n1)[C@@](O)(CC)CC2` (some centres unmarked) [Compound 156]: the 50% degradation concentration (DC50) on HiBiT tagged Wee1 was below 100 nM. Moreover, the IC50 with NCI-H1048 cells (Homo sapiens) was at most 25 nM.
The matching figures for `C=CCn1c(=O)c2cnc(Nc3ccc(N4CCN(C5CCN(c6ccc(NC7CCC(=O)NC7=O)cc6F)CC5)CC4)cc3)nc2n1-c1ccc2c(n1)[C@@](O)(CC)CC2` (some centres unmarked) [Compound 157]: below 100 nM and at most 25 nM.
For the compound `C=CCn1c(=O)c2cnc(Nc3ccc(N4CCC(CN5CCC(c6ccc7c(c6)n(C)c(=O)n7C6CCC(=O)NC6=O)CC5)CC4)cc3)nc2n1-c1cccc(C(C)(C)O)n1` (centres unmarked) [Compound 52], on HiBiT tagged Wee1, the DC50 was below 100 nM and the maximal degradation (Dmax) was 50 to 75%. For the same compound, in the experiment with NCI-H1048 cells (Homo sapiens), the half-inhibitory concentration (IC50) is at most 25 nM.
In the case of `C=CCn1c(=O)c2cnc(Nc3ccc(N4CCN(CC5CCN(c6ccc7c(N8CCC(=O)NC8=O)nn(C)c7c6)CC5)CC4)c(C)c3)nc2n1-c1ccc2c(n1)[C@](C)(O)CC2` [Compound 137], on HiBiT tagged Wee1, the half-maximal degradation concentration (DC50) is below 100 nM and the Dmax is above 75%. Moreover, the 50% inhibitory concentration (IC50) in the experiment on NCI-H1048 cells (Homo sapiens) is at most 25 nM.
The matching figures for `C=CCn1c(=O)c2cnc(Nc3ccc(N4CCN(CC5CCN(c6cc7c(cc6F)c(N6CCC(=O)NC6=O)nn7C)CC5)CC4)nc3)nc2n1-c1ccc2c(n1)[C@](C)(O)CC2` [Compound 197]: below 100 nM, above 75% and at most 25 nM.
For `C=CCn1c(=O)c2cnc(Nc3ccc(N4CCN(CC5CCN(c6ccc(NC7CCC(=O)NC7=O)cn6)CC5)CC4)cc3)nc2n1-c1cccc(C(C)(C)O)n1` (centres unmarked) [Compound 87] the same measures were below 100 nM, above 75% and at most 25 nM.
The matching figures for `C=CCn1c(=O)c2cnc(Nc3ccc(N4CCN(CC5CCN(c6ccc(NC7CCC(=O)NC7=O)cc6F)CC5)CC4)cc3)nc2n1-c1ccc2c(n1)[C@](C)(O)CC2` (single isomer, unassigned) [Compound 152-B]: below 100 nM, above 75% and at most 25 nM.
On to `C=CCn1c(=O)c2cnc(Nc3ccc(N4CCN(CCCCc5ccc6c(c5)n(C)c(=O)n6C5CCC(=O)NC5=O)CC4)cc3)nc2n1-c1cccc(C(C)(C)O)n1` (centres unmarked) [Compound 47], for which, at HiBiT tagged Wee1, the half-maximal degradation concentration (DC50) was in the range of 100 to 1000 nM and the Dmax was in the range of 50 to 75%. The IC50 in the experiment on NCI-H1048 cells (Homo sapiens) was at most 25 nM.
`C=CCn1c(=O)c2cnc(Nc3ccc(N4CCN(CC5CCN(c6ccc(NC7CCC(=O)NC7=O)cc6F)CC5)CC4)cc3)nc2n1-c1ccc(=O)n(C(C)C)n1` (centres unmarked) [Compound 158]: on HiBiT tagged Wee1, the 50% degradation concentration (DC50) is below 100 nM and the Dmax is above 75%. The half-inhibitory concentration (IC50) in the experiment with NCI-H1048 cells (Homo sapiens) was at most 25 nM.
The matching figures for `C=CCn1c(=O)c2cnc(Nc3ccc(N4CCN(CC5CCN(c6ccc7c(N8CCC(=O)NC8=O)nn(C)c7c6)CC5)CC4)cc3)nc2n1-c1ccc2c(n1)[C@](C)(O)CC2` [Compound 115]: below 100 nM, above 75% and at most 25 nM.
For `C=CCn1c(=O)c2cnc(Nc3ccc(N4CCN(CC5CCN(c6cccc7c(C8CCC(=O)NC8=O)nn(C)c67)CC5)CC4)cc3)nc2n1-c1cccc(C(C)(C)O)n1` (centres unmarked) [Compound 117] the same measures were below 100 nM, above 75% and at most 25 nM.
For `C=CCn1c(=O)c2cnc(Nc3ccc(N4CCN(CC5CCN(c6ncc(NC7CCC(=O)NC7=O)cc6F)CC5)[C@H](C)C4)cc3)nc2n1-c1ccc2c(n1)[C@@](O)(CC)CC2` (some centres unmarked) [Compound 193] the same measures were below 100 nM, above 75% and at most 25 nM.
As to `C=CCn1c(=O)c2cnc(Nc3ccc(N4CCC(N5CCN(c6ccc(NC7CCC(=O)NC7=O)cc6F)CC5)CC4)cc3)nc2n1-c1cccc(C(C)(C)O)n1` (centres unmarked) [Compound 67], on HiBiT tagged Wee1, the DC50 is below 100 nM and the Dmax was above 75%. Further, the half-inhibitory concentration (IC50) in the experiment with NCI-H1048 cells (Homo sapiens) was at most 25 nM.
